US10039758B2 (priority 2014, dated 2018)
pEC50: −log10 of the molar value. “Also recorded” adds a separate entry of the source. Where two headings read alike, the source gives them in different places.

Legend:
[1] = system: anthrax lethal toxin (LF-PA), RAW264.7 cells; type: cell-based, mouse
[2] = biological target: purified human cathepsin B (Homo sapiens, UniProt P07858); type: biochemical; conditions: 4, 8, 16, 33, 66 uM, without drug pre-incubation (FIG. 16)
cathepsin B [3] = biological target: T1, cathepsin B (Mus musculus, UniProt P10605); type: cell-based; conditions: RAW264.7, 4-66 uM, 1 hour before lysis (FIG. 17)
cathepsin B [4] = biological target: T1, cathepsin B; type: biochemical; conditions: RAW264.7 lysate, 4-66 uM (FIG. 18)
Ebola virus (Kikwit) = test: microbe, parasite or virus in culture; type: cell-based; conditions: Zaire ebolavirus, HeLa, 48 h
[5] = system: host lysosomal cathepsin B; conditions: cited from earlier work
[6] = system: diphtheria toxin, C32 human melanoma cell line; type: cell-based
[7] = system: anthrax toxin (12 μg LF + 40 μg PA); design: species or system Sprague-Dawley rats; conditions: rat, in vivo
caspase-1 = type: cell-based, mouse
MEK2 = type: cell-based, mouse
LF = LF (Bacillus anthracis, UniProt P15917); type: biochemical
PA+FP59, RAW264.7 cells = type: cell-based, mouse
PA = type: cell-based, mouse
acidic organelles = type: cell-based, mouse; conditions: RAW264.7, AQ 1 hour, 500 ng/ml PA 1 hour
cathepsin B [8] = biological target: cathepsin B (Homo sapiens, UniProt P07858); type: binding
[9] = system: Respiratory syncytial virus (RSV): Strain A-2; test: microbe, parasite or virus in culture; type: cell-based; conditions: human respiratory syncytial virus, HEp-2
[10] = system: Clostridium difficile Toxin B, RAW264.7 cells
[11] = system: Human Cytomegalovirus (CMV Strain AD169); conditions: Human Cytomegalovirus assay
Ebola virus = conditions: cited from earlier work
in vitro [12] = test: in vitro
in vitro [13] = conditions: human
in vitro [14] = conditions: human; remark: listed apart in the source
Chikungunya virus (CHIV) = test: microbe, parasite or virus in culture; conditions: HFF-1
endosomal acidification = conditions: cited from earlier work

T1 sequence (P10605 80-333): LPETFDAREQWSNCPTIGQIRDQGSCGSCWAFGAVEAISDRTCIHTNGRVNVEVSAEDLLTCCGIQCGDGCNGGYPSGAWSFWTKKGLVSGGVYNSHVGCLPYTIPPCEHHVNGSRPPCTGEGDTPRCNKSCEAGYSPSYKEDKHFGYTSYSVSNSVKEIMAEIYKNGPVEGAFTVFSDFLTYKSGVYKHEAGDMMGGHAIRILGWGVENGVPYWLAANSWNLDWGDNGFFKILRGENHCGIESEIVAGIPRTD
Sequence of LF (P15917 34-809 limits assumed): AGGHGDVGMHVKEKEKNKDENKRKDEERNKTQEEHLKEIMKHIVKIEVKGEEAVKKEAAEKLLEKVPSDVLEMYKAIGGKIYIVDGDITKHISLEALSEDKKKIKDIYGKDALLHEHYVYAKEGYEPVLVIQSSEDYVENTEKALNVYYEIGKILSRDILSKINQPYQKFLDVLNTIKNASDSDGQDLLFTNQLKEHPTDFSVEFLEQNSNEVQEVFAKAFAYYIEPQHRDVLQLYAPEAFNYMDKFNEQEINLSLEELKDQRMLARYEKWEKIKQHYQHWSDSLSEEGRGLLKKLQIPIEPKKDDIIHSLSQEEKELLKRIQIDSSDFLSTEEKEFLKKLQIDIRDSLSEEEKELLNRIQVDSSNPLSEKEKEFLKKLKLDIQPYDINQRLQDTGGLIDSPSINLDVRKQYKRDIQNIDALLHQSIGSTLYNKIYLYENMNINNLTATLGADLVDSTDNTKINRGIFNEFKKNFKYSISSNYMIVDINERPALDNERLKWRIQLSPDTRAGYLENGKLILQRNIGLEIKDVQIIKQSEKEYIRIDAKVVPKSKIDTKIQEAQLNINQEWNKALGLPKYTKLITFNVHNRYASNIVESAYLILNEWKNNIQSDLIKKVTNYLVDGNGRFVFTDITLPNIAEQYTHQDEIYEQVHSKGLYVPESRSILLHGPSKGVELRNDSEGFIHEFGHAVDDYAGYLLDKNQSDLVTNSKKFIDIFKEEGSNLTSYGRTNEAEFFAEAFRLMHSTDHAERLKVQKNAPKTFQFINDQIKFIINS

COc1cc(NC(C)CCCN)c2ncccc2c1 (stereo not drawn) [Primaquine]
protection of host cells against anthrax toxin killing (cell survival) [1]: none of the other quinoline-containing antimalarial compounds, Cinchonine, Primaquine, and Quinidine, from JHCCL were active

CCNCc1cc(Nc2ccnc3cc(Cl)ccc23)ccc1O [DEAQ, N-Desethyl Amodiaquine]
protection of host cells against anthrax toxin killing (cell survival) [1]: increased survival
inhibition of cathepsin B activity, purified human cathepsin B [2]: directly inhibit cathepsin B activity in a dose dependent manner
cathepsin B enzymatic activity in cells pre-treated with drug (cathepsin B [3]): lost cathepsin B enzymatic activity in a dose dependent manner
cathepsin B activity in protein lysate from cells not exposed to drugs prior to lysis (cathepsin B [4]): inhibited cathepsin B activity
pEC50 (Ebola virus (Kikwit)): 5.44

CCNCCCC(C)Nc1ccnc2cc(Cl)ccc12 (stereo not drawn) [DECQ, Desethyl-Chloroquine]
inhibition of cathepsin B activity, purified human cathepsin B [2]: weaker inhibitors of cathepsin B activity
cathepsin B enzymatic activity in cells pre-treated with drug (cathepsin B [3]): weaker inhibitors of cathepsin B activity
cathepsin B activity in protein lysate from cells not exposed to drugs prior to lysis (cathepsin B [4]): weaker inhibitors of cathepsin B activity

C=C[C@H]1C[N@@]2CC[C@H]1C[C@@H]2[C@@H](O)c1ccnc2ccc(OC)cc12 [Quinidine]
protection of host cells against anthrax toxin killing (cell survival) [1]: none of the other quinoline-containing antimalarial compounds, Cinchonine, Primaquine, and Quinidine, from JHCCL were active

CA-074
effect of cathepsin B inhibition on cellular sensitivity to LF-PA [5]: reduction of cellular sensitivity to LF-PA

CCN(CC)Cc1cc(Nc2ccnc3cc(Cl)ccc23)ccc1O [AQ, Amodiaquine]
protection of host cells against anthrax toxin killing (cell survival) [1]: increased survival; also recorded: completely protect
sensitivity of host cells to PA83+LF versus PA63+LF [1]: equally reduces sensitivity of host cells to both PA83+LF and PA63+LF treatments
multiplex hit in JHCCL screen: inhibition of anthrax and diphtheria toxin cell killing [6]: inhibited anthrax and diphtheria toxins
survival of C32 cells exposed to diphtheria toxin [6]: increase survival
clinical signs of toxin challenge [7]: all of the animals in that group displayed classical signs of having undergone a toxin challenge
survival and toxin-associated symptoms [7]: survived; also recorded: protected all of the rats; also recorded: all survived without displaying toxin-associated symptoms
active caspase-1 (FLICA fluorescence) after LF-PA (caspase-1): not detected
cleavage of MEK2 by LF in cells (immunoblot) (MEK2): completely prevented this effect
proteolytic activity of LF on MAPKK peptide (emission at 523 nm) (LF): does not block the proteolytic activity of LF
sensitivity of cells to PA+FP59 (PA+FP59, RAW264.7 cells): less sensitive to treatment with PA+FP59
binding of PA83 to cells and proteolytic processing of PA to PA63 (PA): did not block binding of PA83 to cells or block proteolytic processing of PA to generate PA63
cell-associated Lysosensor fluorescence (endosomal acidification) (acidic organelles): markedly decreased cell-associated Lysosensor fluorescence
inhibition of cathepsin B activity, purified human cathepsin B [2]: directly inhibit cathepsin B activity in a dose dependent manner
cathepsin B enzymatic activity in cells pre-treated with drug (cathepsin B [3]): lost cathepsin B enzymatic activity in a dose dependent manner
cathepsin B activity in protein lysate from cells not exposed to drugs prior to lysis (cathepsin B [4]): inhibited cathepsin B activity
binding to cathepsin B (STD difference spectrum) (cathepsin B [8]; 2 mM AQ, 20 μM cathepsin B): binding to the enzyme
STD effect, atom H4 (cathepsin B [8]; relative to the H4 atom (100%)): 100%
STD effect, atom H5 (cathepsin B [8]; relative to the H4 atom (100%)): 97%
pEC50 (Ebola virus (Kikwit)): 5.42
pEC50 [9]: 4.49
survival of RAW264.7 macrophages exposed to Clostridium difficile Toxin B [10]: increase survival
CC50 [11]: > 60 µM
inhibition of Ebola virus pathogenicity in cells (Ebola virus): inhibit Ebola virus pathogenicity in cells
CC50 (in vitro [12]): 31 µM
CC50 (in vitro [13]): 50 µM
CC50 (in vitro [14]): > 50 µM
pEC50 (Chikungunya virus (CHIV)): 4.74

CCN(CC)CCCC(C)Nc1ccnc2cc(Cl)ccc12 (stereo not drawn) [CQ, Chloroquine]
multiplex hit in JHCCL screen: inhibition of anthrax and diphtheria toxin cell killing [6]: inhibited anthrax and diphtheria toxins
inhibition of cathepsin B activity, purified human cathepsin B [2]: weaker inhibitors of cathepsin B activity
cathepsin B enzymatic activity in cells pre-treated with drug (cathepsin B [3]): weaker inhibitors of cathepsin B activity
cathepsin B activity in protein lysate from cells not exposed to drugs prior to lysis (cathepsin B [4]): weaker inhibitors of cathepsin B activity
inhibition of Ebola virus pathogenicity in cells (Ebola virus): inhibit Ebola virus pathogenicity in cells
endosomal acidification (endosomal acidification): prevent endosomal acidification

C=C[C@H]1C[N@@]2CC[C@H]1C[C@@H]2[C@@H](O)c1ccnc2ccccc12 [Cinchonine]
protection of host cells against anthrax toxin killing (cell survival) [1]: none of the other quinoline-containing antimalarial compounds, Cinchonine, Primaquine, and Quinidine, from JHCCL were active
